Measurements reported in PMC12249915, “Development of a Cyclodextrin-Based Drug Delivery System to Improve the Physicochemical Properties of Ceftobiprole as a Model Antibiotic” (International Journal of Molecular Sciences, 2025).
Values after ≈ are worked out from the molar mass of the structure shown. Values joined by “and” are separate entries in the source; they are usually repeats but may differ in a detail not shown here. Equal values may be shown once. Read-outs that look alike come from different tables or passages of the source. One block for each molecule: values may come before it.

Assays:
[1] = pH of solutions before freeze-drying and after reconstitution; type: physicochemical
[2] = DOSY NMR study of complex formation with SBE-β-CD; type: physicochemical; conditions: for diffusion coefficient D: DOSY, D2O, 25 °C, ceftobiprole/maleic acid 1:25 without SBE-β-CD at 7.5 mM ceftobiprole
From the text: Another approach to investigate the complex formation using NMR is the use of Diffusion-Ordered SpectroscopY (DOSY). Based on chemical shifts, each individual signal can be assigned to a proper species present in the analysed sample solution, thus allowing us to determine its diffusion coefficient D . The value of D depends on the hydrodynamic radius r of the analysed species, temperature T , and on the dynamic viscosity η of the solution:(1) D=kBT/6π η r
Here, kB stands for the Boltzmann constant. The solutions used for the DOSY measurements should be appropriately diluted to avoid the viscosity-related issues. Moreover, to properly compare the DOSY spectra between the samples with and without SBE-β-CD, it must be checked whether the viscosities of these two samples are similar.
It is a generally accepted practice to approximate that D is the same for the CD in a complex and for free CD. Assuming a quick exchange regime, to calculate the molar fraction MFCB of ceftobiprole molecules being complexed in relation to all ceftobiprole molecules in the studied solution, one can take advantage of the equation stating that DCB−CD is the weighted average of DCB and DCD :(2) DCB−CD=MFCBDCB+(1−MFCB)DCD
The complexation equilibrium is dynamic, and can be interpreted as a statistical ceftobiprole molecule spending MFCB proportion of time in a complex, and (1−MFCB) fraction of time alone, resulting in overall DCB−CD being the weighted average.
In these studies, 16 increments consisting of 64 scans were performed. A relaxation time of 2 s, a diffusion time of 200 ms, a total diffusion encoding gradient duration of 2 ms, and 16 values of the diffusion encoding gradient incremented from 3 to 25 G/cm were applied. Processing was carried out using the OpenVnmrJ 3.1A software with the option of correction for spatially non-uniform pulsed field gradients.

[3] = Solubility of ceftobiprole determined by HPLC; type: physicochemical
Method: The samples were stored in a freezer, taking into account the recommended storage conditions for ceftobiprole. The stability of the prepared samples was tested at defined intervals using the same methodology. To evaluate potential changes in solubility due to physical transformations such as phase transitions or recrystallization, an identical volume of water was added as in the initial solubility test. Subsequently, the reconstituted samples were analysed by HPLC to determine the precise solubility and to monitor any increase in the concentration of DPs content, thereby assessing both physical and chemical stability.
The LC-MS/MS experiments were performed using the same equipment and methodology as described in [14], with one modification: to acquire a full mass spectrum of SBE-β-CD, the range of detected m/z was broadened to 2500.

[4] = cited from earlier work
[5] = set-up: method as in PMID 38068968; conditions: theoretical calculations, depending on the software used; cited from earlier work

pH of the solution intended for freeze-drying ([1]; 20-fold molar excess of citric acid in relation to ceftobiprole): 2.9
pH of the solution intended for freeze-drying ([1]; 50-fold molar excess of citric acid in relation to ceftobiprole): 2.7
pH of the solution intended for freeze-drying ([1]; 100-fold molar excess of citric acid in relation to ceftobiprole): 2.5
SMILES: O=C(O)CC(O)(CC(=O)O)C(=O)O [citric acid]

diffusion coefficient D [2]: 7.11 × 10^−10 m^2/s
SMILES: O=C(O)/C=C\C(=O)O [maleic acid]

solubility ([3]; 0.1 M aqueous formic acid (HCOOH), solubility of ceftobiprole before use of 0.1 M formic acid and SBE-β-CD): ~100 µg/mL (≈ 187 µM)
fold higher solubility after freeze-drying in 0.1 M HCOOH ([3]; freeze-dried (2.1 mg/mL) vs unprocessed in 0.1 M HCOOH ([…])): 15 fold
solubility ([3]; water, freeze-dried analogue without SBE-β-CD, reconstituted in water, read-out: Solubility of Ceftobiprole for Freeze-Dried Samples in a Preliminary Study Without SBE-β-CD): 2100 µg/mL (≈ 3930 µM)
solubility ([3]; water, freeze-dried from water without acid, read-out: solubility after freeze-drying of pure aqueous solutions): 120 µg/mL (≈ 224 µM)
solubility ([3]; water, without freeze-drying in acidic environment, read-out: water solubility of ceftobiprole): 50 µg/mL (≈ 93.5 µM)
pH of the dissolved sample ([1]; freeze-dried in 0.1 M HCOOH without SBE-β-CD): approximately 5
diffusion coefficient D [2]: ≈ 3.16 × 10^−10 m^2/s
molar fraction MFCB of ceftobiprole molecules being complexed ([2]; cCB = 1.917 mM, cCD = 7.667 mM): ≈ 0.35
molar fraction MFCB ([2]; calculated for cCB = 22.5 mM, cCD = 90 mM (1:25:4), K = 77 M^−1): 0.845
molar fraction MFCB ([2]; calculated for molar ratio 1:25:2, cCD = 45 mM): 0.693
equilibrium constant K of complex with SBE-β-CD ([2]; semi-quantitative, from DOSY): 77 M⁻¹
ceftobiprole molecules in the complex with SBE-β-CD ([2]; solution near saturation, 1:25:4): 85%
SMILES: Nc1nc(/C(=N/O)C(=O)N[C@@H]2C(=O)N3C(C(=O)O)=C(/C=C4\CCN([C@@H]5CCNC5)C4=O)CS[C@H]23)ns1 [ceftobiprole]
t90 ([4]; 0.01 M NaOH): ≈ 10 min
t90 (time for 10% decrease in initial concentration) ([4]; 0.1 M HCl at room temperature): approximately 22 h
t90 ([4]; 3% H2O2): ≈ 25 min
t90 ([4]; UV irradiation at 366 nm): ≈ 1 h
decrease of degradation rate constant in the presence of 10 mM SBE-β-CD ([4]; acidic degradation in 0.1 M HCl at 25 °C): 2.5 fold
decrease of degradation rate constant in the presence of 10 mM SBE-β-CD ([4]; thermal degradation in water at 45 °C): 2.5 fold
pKa of the carboxyl group of ceftobiprole [5]: 3.0 and 3.2
